PubChem BioAssay (NCI)
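Step 1: Grow cells in 96-well plates. Step 2: Expose to compound for 48 hours at 5 concentrations. Step 3: Interpolate endpoints linearly; if unreached, use highest concentration. TGI: concentration producing complete growth inhibition.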

What was measured:
Assay in all cases: inhibition of tumour cell growth, NCI panel, 48 h
LOX IMVI melanoma = system: LOX IMVI melanoma
NCI-H226 lung = system: NCI-H226 lung
HT29 colon = system: HT29 colon
K-562 leukemia = system: K-562 leukemia
SK-MEL-28 melanoma = system: SK-MEL-28 melanoma
SK-MEL-5 melanoma = system: SK-MEL-5 melanoma
PC-3 prostate = system: PC-3 prostate
EKVX NSCLC = system: EKVX NSCLC
NCI-H460 lung = system: NCI-H460 lung
HL-60(TB) leukemia = system: HL-60(TB) leukemia
TK-10 renal = system: TK-10 renal
OVCAR-8 ovarian = system: OVCAR-8 ovarian
HCT-15 colon = system: HCT-15 colon
SF-268 CNS = system: SF-268 CNS
T-47D breast = system: T-47D breast
UACC-62 melanoma = system: UACC-62 melanoma
HOP-62 NSCLC = system: HOP-62 NSCLC
SF-295 CNS = system: SF-295 CNS
NCI-H522 lung = system: NCI-H522 lung
A549 NSCLC = system: A549 NSCLC
SNB-19 CNS = system: SNB-19 CNS
HCT-116 colon = system: HCT-116 colon
BT-549 breast = system: BT-549 breast
M14 melanoma = system: M14 melanoma
SF-539 CNS = system: SF-539 CNS
NCI-H23 lung = system: NCI-H23 lung
MCF7 breast = system: MCF7 breast
MALME-3M melanoma = system: MALME-3M melanoma
IGROV1 ovarian = system: IGROV1 ovarian
RXF 393 renal = system: RXF 393 renal
SN12C renal = system: SN12C renal
HOP-92 NSCLC = system: HOP-92 NSCLC
A498 renal = system: A498 renal
HCC-2998 colon = system: HCC-2998 colon
SR leukemia = system: SR leukemia
MDA-MB-231 breast = system: MDA-MB-231 breast
MDA-N = system: MDA-N
SNB-75 CNS = system: SNB-75 CNS
UO-31 renal = system: UO-31 renal
HS 578T breast = system: HS 578T breast
OVCAR-4 ovarian = system: OVCAR-4 ovarian
OVCAR-5 ovarian = system: OVCAR-5 ovarian
DU-145 prostate = system: DU-145 prostate
KM12 colon = system: KM12 colon
SK-MEL-2 melanoma = system: SK-MEL-2 melanoma
COLO 205 colon = system: COLO 205 colon
SW-620 colon = system: SW-620 colon
CCRF-CEM leukemia = system: CCRF-CEM leukemia
CAKI-1 renal = system: CAKI-1 renal
NCI/ADR-RES ovarian = system: NCI/ADR-RES ovarian
MDA-MB-435 = system: MDA-MB-435
U251 CNS = system: U251 CNS
UACC-257 melanoma = system: UACC-257 melanoma
786-0 renal = system: 786-0 renal
ACHN renal = system: ACHN renal
SK-OV-3 ovarian = system: SK-OV-3 ovarian
MOLT-4 leukemia = system: MOLT-4 leukemia
OVCAR-3 ovarian = system: OVCAR-3 ovarian

CCOC(=O)c1[nH]n(-c2ccccc2)c(=O)c1C=NC(=S)C(N)=S
TGI (LOX IMVI melanoma): > 100 µM | TGI (NCI-H226 lung): > 100 µM | TGI (HT29 colon): > 100 µM | TGI (K-562 leukemia): > 100 µM | TGI (SK-MEL-28 melanoma): > 100 µM | TGI (SK-MEL-5 melanoma): 40.3 µM | TGI (PC-3 prostate): > 100 µM | TGI (EKVX NSCLC): 97.7 µM | TGI (NCI-H460 lung): > 100 µM | TGI (HL-60(TB) leukemia): > 100 µM | TGI (TK-10 renal): > 100 µM | TGI (OVCAR-8 ovarian): > 100 µM | TGI (HCT-15 colon): > 100 µM | TGI (SF-268 CNS): > 100 µM | TGI (T-47D breast): 41.8 µM | TGI (UACC-62 melanoma): > 100 µM | TGI (HOP-62 NSCLC): > 100 µM | TGI (SF-295 CNS): > 100 µM | TGI (NCI-H522 lung): 35.5 µM | TGI (A549 NSCLC): > 100 µM | TGI (SNB-19 CNS): > 100 µM | TGI (HCT-116 colon): 44.6 µM | TGI (BT-549 breast): > 100 µM | TGI (M14 melanoma): 73.3 µM | TGI (SF-539 CNS): 57.4 µM | TGI (NCI-H23 lung): > 100 µM | TGI (MCF7 breast): > 100 µM | TGI (MALME-3M melanoma): > 100 µM | TGI (IGROV1 ovarian): > 100 µM | TGI (RXF 393 renal): 65.1 µM | TGI (SN12C renal): > 100 µM | TGI (HOP-92 NSCLC): > 100 µM | TGI (A498 renal): > 100 µM | TGI (HCC-2998 colon): > 100 µM | TGI (SR leukemia): > 100 µM | TGI (MDA-MB-231 breast): > 100 µM | TGI (MDA-N): > 100 µM | TGI (SNB-75 CNS): 91.4 µM | TGI (UO-31 renal): 42.2 µM | TGI (HS 578T breast): > 100 µM | TGI (OVCAR-4 ovarian): > 100 µM | TGI (OVCAR-5 ovarian): > 100 µM | TGI (DU-145 prostate): > 100 µM | TGI (KM12 colon): > 100 µM | TGI (SK-MEL-2 melanoma): > 100 µM | TGI (COLO 205 colon): 68.5 µM | TGI (SW-620 colon): > 100 µM | TGI (CCRF-CEM leukemia): > 100 µM | TGI (CAKI-1 renal): > 100 µM | TGI (NCI/ADR-RES ovarian): > 100 µM | TGI (MDA-MB-435): > 100 µM | TGI (U251 CNS): > 100 µM | TGI (UACC-257 melanoma): > 100 µM | TGI (786-0 renal): 38.2 µM | TGI (ACHN renal): 64.8 µM | TGI (SK-OV-3 ovarian): > 100 µM | TGI (MOLT-4 leukemia): > 100 µM | TGI (OVCAR-3 ovarian): > 100 µM
